Legend:
Test in all cases: Comparative tests by the post-emergence method
Type in all cases: in vivo
[1] = test system: Veronica persica
Protocol: (§1) Seeds of monocotyledonous and dicotyledonous weed and crop plants are placed in sandy loam in wood-fiber pots, covered with soil and cultivated in a greenhouse under good growth conditions. 2 to 3 weeks after sowing, the test plants are treated at the one-leaf stage. The inventive compounds formulated in the form of wettable powders (WP) or as emulsion concentrates (EC) are then sprayed onto the green parts of the plants as an aqueous suspension or emulsion at a water application rate of 600 to 800 I/ha (converted) with addition of 0.2% wetting agent. After the test plants have been left to stand in the greenhouse under optimal growth conditions for about 3 weeks, the action of the formulations is assessed visually in comparison to untreated controls (herbicidal action in percent (%): 100% activity=the plants have died, 0% activity=like control plants). Here, the compounds Nos. 1-02, 1-03, 1-05, 1-06, 1-14, 1-15, 2-01, 2-02, 2-03, 2-04, 2-05, 2-06, 2-16, 2-17, 2-18, 2-19, 2-20, 2-21, 2-22, 2-23, 2-24, 2-25, 2-26, 2-27, 2-28, 2-29, 2-30, 2-31, 2-33, 2-34, 2-35, 2-39, 2-40, 2-41, 2-43, 2-44, 2-45, 2-46, 2-47, 2-48, 2-49, 2-50, 2-51, 2-52, 2-53, 2-60, 2-61, 2-62, 2-63, 2-64, 2-65, 2-69 and 2-83 each show, at an application rate of 80 g/ha, an activity of at least 80% against Abutilon theophrasti and Veronica persica. The compounds Nos. 1-14, 2-32, 2-42, 2-66, 2-67, 2-69 and 2-83, at an application rate of 80 g/ha, each show an activity of at least 80% against Amaranthus retroflexus and Stellaria media.
(§2) For comparative tests, the compound No. 1-15 according to the invention and the compounds No. 118 and No. 119 known from EP 0 049 071 A1 were tested by the post-emergence method at various dosages against a number of harmful plants.

[2] = test system: Pharbitis purpureum
Protocol: as §1, §2
(§3) ABUTH Abutilon theophrasti PHBPU Pharbitis purpureum

[3] = test system: Abutilon theophrasti
Protocol: as §1, §2, §3

SMILES | Herbicidal action against VERPE ([1]; dosage 5 g/ha) [%] | Herbicidal action against VERPE ([1]; dosage 20 g/ha) [%] | Herbicidal action against VERPE ([1]; dosage 80 g/ha) [%] | Herbicidal action against PHBPU ([2]; dosage 5 g/ha) [%] | Herbicidal action against PHBPU ([2]; dosage 20 g/ha) [%] | Herbicidal action against PHBPU ([2]; dosage 80 g/ha) [%] | Herbicidal action against ABUTH ([3]; dosage 5 g/ha) [%] | Herbicidal action against ABUTH ([3]; dosage 20 g/ha) [%] | Herbicidal action against ABUTH ([3]; dosage 80 g/ha) [%]
COc1cccc(OC)c1C(=O)Nc1nc[nH]n1 [Compound No. 119, N-(1H-1,2,4-triazol-3-yl)-2,6-dimethoxybenzamide] | 0 | 0 | 0 | 0 | 0 | 0 | 0 | 0 | 0
CCC(C)(CC)c1nnc(NC(=O)c2c(OC)cccc2OC)[nH]1 [Compound No. 118, N-[5-(1-ethyl-1-methylpropyl)-4H-1,2,4-triazol-3-yl]-2,6-dimethoxybenzamide] | 0 | 0 | 0 | 0 | 0 | 0 | 0 | 0 | 0
Cc1cc(C(=O)Nc2ncnn2C)c(Cl)cc1S(C)(=O)=O [No. 1-15] | 40 | 80 | 80 | 80 | 80 | 80 | 90 | 90 | 90

— patent US9259001B2, “5-phenyl-substituted N-(tetrazol-5-yl) aryl carboxylic acid amides and N-(triazol-5-yl) aryl carboxylic acid amides, and use thereof as herbicides” (BAYER INTELLECTUAL PROPERTY GMBH, priority 2011, dated 2016)
